Among the test systems are ACHN renal; COLO 205 colon; HCC-2998 colon; K-562 leukemia; M14 melanoma; MALME-3M melanoma; MCF7 breast; OVCAR-4 ovarian; SF-268 CNS; UO-31 renal.
What all share (test): inhibition of tumour cell growth, NCI panel, 48 h

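Following 48 hours of exposure in 96-well plates, responses at five concentrations were used to interpolate endpoints linearly. GI50 marks 50% less growth. At the TGI there is no net growth.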 Bounds are passed on as bounds.

Turning to `CCCCCCNCc1cc(C(C)(C)C)cc(CNCCCCCC)c1O`, the GI50 is 1.62 µM with ACHN renal; 1.67 µM in the assay with COLO 205 colon; 1.62 µM in the assay with HCC-2998 colon; 1.3 µM with K-562 leukemia; 1.75 µM in the assay on M14 melanoma; 1.74 µM with MALME-3M melanoma. For the same compound, the GI50 was 1.71 µM in the assay on MCF7 breast, 1.85 µM in the assay on OVCAR-4 ovarian, 1.7 µM in the assay with SF-268 CNS and 1.37 µM in the assay on UO-31 renal. In addition, the TGI in the assay on ACHN renal worked out at 2.97 µM; with COLO 205 colon it was 3.07 µM; in the assay with HCC-2998 colon, 2.99 µM; in the assay with K-562 leukemia, 3.04 µM; in the assay with M14 melanoma, 3.18 µM; in the assay on MALME-3M melanoma, 3.43 µM. Moreover, the TGI in the assay on MCF7 breast worked out at 3.17 µM; with OVCAR-4 ovarian, 3.47 µM; in the assay on SF-268 CNS it was 3.32 µM; in the assay on UO-31 renal it was 2.8 µM.

`CC1(C)Cc2c(Br)c(Br)c(Br)c(OCC(O)CN3CCN(c4ccccn4)CC3)c2O1` (configuration not stated): the GI50 in the assay with ACHN renal is 12.5 µM; in the assay with COLO 205 colon it was 15 µM; with HCC-2998 colon, 3.68 µM; in the assay with K-562 leukemia, 4.1 µM; with M14 melanoma, 13.3 µM; with MALME-3M melanoma it was 17 µM. The GI50 was 10.3 µM with MCF7 breast, 12.1 µM with OVCAR-4 ovarian, 12.9 µM in the assay with SF-268 CNS and 11 µM in the assay with UO-31 renal. For the same compound, the TGI in the assay on ACHN renal came to 91.4 µM; in the assay on COLO 205 colon, 34.4 µM; in the assay with HCC-2998 colon, 13.7 µM; in the assay with K-562 leukemia, 20.3 µM; in the assay on M14 melanoma it was 29.7 µM; in the assay on MALME-3M melanoma, 36.9 µM. For the same compound, the TGI in the assay on MCF7 breast worked out at 22.4 µM; with OVCAR-4 ovarian, 26.7 µM; with SF-268 CNS it was 39.6 µM; in the assay with UO-31 renal, 24 µM.

As to `O=C(CCCN1CCC(C(O)c2ccc(F)cc2)CC1)c1ccc(F)cc1` (configuration not stated), the TGI with ACHN renal came out at 99.9 µM; in the assay with COLO 205 colon, 110 µM; in the assay on HCC-2998 colon it was 93.4 µM; in the assay with K-562 leukemia it was 154 µM; with M14 melanoma, 109 µM; with MALME-3M melanoma, 113 µM. Besides, the TGI turned out to be 122 µM in the assay on MCF7 breast, 134 µM in the assay with OVCAR-4 ovarian, 122 µM in the assay on SF-268 CNS and 79.3 µM with UO-31 renal.

As for `CCN1C(=NCCO)NS(=O)(=O)c2ccccc21`, the TGI with ACHN renal, with COLO 205 colon, with HCC-2998 colon, in the assay with K-562 leukemia, with M14 melanoma and in the assay on MCF7 breast was more than 100 µM in each case. The TGI in the assay with OVCAR-4 ovarian, with SF-268 CNS and in the assay on UO-31 renal was more than 100 µM each time.

Consider `COc1cc(C)c2sc3ccccc3c(=O)c2c1NCCN(C)C`, for which the GI50 with ACHN renal is 2.97 µM; in the assay on COLO 205 colon it was 1.86 µM; with HCC-2998 colon, 2.99 µM; in the assay on K-562 leukemia, 2.3 µM; in the assay with M14 melanoma, 2.16 µM; with MALME-3M melanoma, 2.11 µM. In addition, the GI50 in the assay with MCF7 breast was 2.4 µM; with OVCAR-4 ovarian, 8.08 µM; with SF-268 CNS, 8.57 µM; with UO-31 renal, 3.46 µM. Further, the TGI amounted to 11.3 µM in the assay with ACHN renal; 3.51 µM with COLO 205 colon; 9.03 µM with HCC-2998 colon; 4.61 µM with K-562 leukemia; 4.33 µM in the assay on M14 melanoma; 5.39 µM in the assay on MALME-3M melanoma. For the same compound, the TGI in the assay with MCF7 breast was found to be 10.2 µM; in the assay with OVCAR-4 ovarian, 20.9 µM; in the assay on SF-268 CNS, 22.3 µM; in the assay with UO-31 renal it was 16.1 µM.

Regarding `Cc1cc(Cl)ccc1C(=O)c1ccc2ccccc2c1C(=O)O`, the TGI in the assay on ACHN renal, with COLO 205 colon, in the assay with HCC-2998 colon, with K-562 leukemia, with M14 melanoma and in the assay on MALME-3M melanoma was more than 100 µM in each case. Also, the TGI with MCF7 breast, with OVCAR-4 ovarian, with SF-268 CNS and in the assay on UO-31 renal was more than 100 µM in each case.

Turning to `COc1ccc(C(=O)c2sc3nc(-c4cccs4)ccc3c2N)cc1OC`, the GI50 in the assay with ACHN renal is 9.26 µM; with COLO 205 colon it was 5.35 µM; with HCC-2998 colon it was 26.2 µM; with K-562 leukemia, 2.1 µM; in the assay with M14 melanoma, 4.27 µM; with MCF7 breast it was 2.79 µM. Further, the GI50 was 6.75 µM with OVCAR-4 ovarian, 8.33 µM with SF-268 CNS and 4.56 µM in the assay on UO-31 renal. Further, the TGI in the assay on ACHN renal, in the assay with COLO 205 colon, in the assay on HCC-2998 colon, in the assay on K-562 leukemia, in the assay on M14 melanoma and in the assay with MCF7 breast was more than 100 µM throughout. The TGI with OVCAR-4 ovarian, with SF-268 CNS and in the assay with UO-31 renal was more than 100 µM in each case.

As for `CCOC(=O)Nc1cc2ccccc2c(N=Nc2ccccc2)c1O`, the TGI with ACHN renal, in the assay on COLO 205 colon, in the assay with HCC-2998 colon, in the assay with K-562 leukemia, with M14 melanoma and with MALME-3M melanoma was more than 100 µM each time. For the same compound, the TGI with MCF7 breast is more than 100 µM; with OVCAR-4 ovarian, 49.3 µM; in the assay with SF-268 CNS, more than 100 µM; with UO-31 renal, more than 100 µM.

For the compound `Cc1cc(O)c(C2=NN(c3ccc(S(N)(=O)=O)cc3)C(/C=C/c3ccccc3)C2)cc1Cl` (configuration not stated), the GI50 in the assay on ACHN renal is 5.27 µM; in the assay on COLO 205 colon, 10.4 µM; with HCC-2998 colon, 9.89 µM; in the assay on K-562 leukemia, 11.6 µM; with M14 melanoma, 6.16 µM; in the assay with MALME-3M melanoma, 3.01 µM. Further, the GI50 was 3.93 µM in the assay with MCF7 breast, 3.74 µM with OVCAR-4 ovarian, 5.63 µM in the assay with SF-268 CNS and 15.2 µM in the assay with UO-31 renal. The TGI was 21.9 µM with ACHN renal; 22.1 µM in the assay with COLO 205 colon; 30.3 µM in the assay on HCC-2998 colon; 87.5 µM in the assay with K-562 leukemia; 19.3 µM in the assay on M14 melanoma; 17.4 µM in the assay with MALME-3M melanoma. The TGI is 16.1 µM with MCF7 breast, 18.9 µM in the assay with OVCAR-4 ovarian, 19.5 µM in the assay with SF-268 CNS and 34.9 µM with UO-31 renal.

For the origin of these results see PubChem BioAssay (NCI).
